According to the supplement of paper PMC13380429:

Key:
Conditions in all cases: 72 h
[1] = test system: Caco-2; assay: cell viability relative to DMSO; higher = less toxic
[2] = test system: Calu-3; assay: as above
[3] = test system: HepG2; assay: as above
[4] = test system: U2OS; assay: as above
[5] = test system: Vero E6; assay: as above
[6] = test system: Caco-2; assay: relative viability EC50 (midpoint between 100% and the lowest measured viability); higher = less toxic
[7] = test system: HepG2; assay: as above
[8] = test system: U2OS; assay: as above
[9] = test system: Caco-2; assay: drug sensitivity score (DSS) for viability; higher = more toxic; extreme values may be limits of the assay
[10] = test system: Calu-3; assay: as above
[11] = test system: HepG2; assay: as above
[12] = test system: U2OS; assay: as above
[13] = test system: Vero E6; assay: as above
[14] = test system: Calu-3; assay: relative viability EC50 (midpoint between 100% and the lowest measured viability); higher = less toxic

Structure (SMILES): CC(=O)O[C@H]1C(=O)[C@@]2(C)[C@H]([C@H](OC(=O)c3ccccc3)[C@]3(O)C[C@H](OC(=O)[C@H](O)[C@@H](NC(=O)c4ccccc4)c4ccccc4)C(C)=C1C3(C)C)[C@]1(OC(C)=O)CO[C@@H]1C[C@@H]2O [paclitaxel]
- cell viability ([1]; 1 nM): 109%
- cell viability ([1]; 10 nM): 84.8%
- cell viability ([1]; 100 nM): 61.7%
- cell viability ([1]; 1000 nM): 57%
- cell viability ([1]; 10000 nM): 48.7%
- cell viability ([2]; 1 nM): 97.9%
- cell viability ([2]; 10 nM): 64.3%
- cell viability ([2]; 100 nM): 62.6%
- cell viability ([2]; 1000 nM): 68.5%
- cell viability ([2]; 10000 nM): 65.7%
- cell viability ([3]; 1 nM): 108%
- cell viability ([3]; 10 nM): 64.9%
- cell viability ([3]; 100 nM): 42.8%
- cell viability ([3]; 1000 nM): 36.5%
- cell viability ([3]; 10000 nM): 34.4%
- cell viability ([4]; 1 nM): 101%
- cell viability ([4]; 10 nM): 67.9%
- cell viability ([4]; 100 nM): 32.9%
- cell viability ([4]; 1000 nM): 30.3%
- cell viability ([4]; 10000 nM): 26.3%
- cell viability ([5]; 1 nM): 103%
- cell viability ([5]; 10 nM): 98.3%
- cell viability ([5]; 100 nM): 91.6%
- cell viability ([5]; 1000 nM): 59.8%
- cell viability ([5]; 10000 nM): 74.2%
- relative viability EC50 [6]: 0.0334 µM
- relative viability EC50 [7]: 0.0095 µM
- relative viability EC50 [8]: 0.0128 µM
- drug sensitivity score [9]: 14.7
- drug sensitivity score [10]: 16.4
- drug sensitivity score [11]: 24.9
- drug sensitivity score [12]: 25.9
- drug sensitivity score [13]: 8.6

Structure (SMILES): CC(=O)O[C@H]1C[C@@]2(C)[C@@H](C[C@@H](O)[C@H]3[C@@]4(C)CC[C@@H](O)[C@@H](C)[C@@H]4CC[C@@]32C)/C1=C(\CCC=C(C)C)C(=O)O [fusidic-acid]
- cell viability ([1]; 1 nM): 103%
- cell viability ([1]; 10 nM): 116%
- cell viability ([1]; 100 nM): 89.6%
- cell viability ([1]; 1000 nM): 104%
- cell viability ([1]; 10000 nM): 99.5%
- cell viability ([2]; 1 nM): 96%
- cell viability ([2]; 10 nM): 109%
- cell viability ([2]; 100 nM): 93.7%
- cell viability ([2]; 1000 nM): 93.5%
- cell viability ([2]; 10000 nM): 86.1%
- cell viability ([4]; 1 nM): 98.8%
- cell viability ([4]; 10 nM): 104%
- cell viability ([4]; 100 nM): 99.6%
- cell viability ([4]; 1000 nM): 106%
- cell viability ([4]; 10000 nM): 100%
- relative viability EC50 [6]: > 10 µM
- relative viability EC50 [14]: > 10 µM
- relative viability EC50 [8]: > 10 µM
- drug sensitivity score [9]: 0
- drug sensitivity score [10]: 0.3
- drug sensitivity score [12]: 0

Structure (SMILES): CC1CS(=O)(=O)CCN1/N=C/c1ccc([N+](=O)[O-])o1 (stereo unspecified) [nifurtimox]
- drug sensitivity score [10]: 0
- drug sensitivity score [11]: 0
- drug sensitivity score [12]: 0
- drug sensitivity score [13]: 0

Structure (SMILES): Cc1cccc2c1CC[C@H](CN1CCC(c3c(Cl)cccc3Cl)CC1)C[C@@H]2O
- cell viability ([1]; 1 nM): 93.9%
- cell viability ([1]; 10 nM): 95.8%
- cell viability ([1]; 100 nM): 91.3%
- cell viability ([1]; 1000 nM): 78.3%
- cell viability ([1]; 10000 nM): 58.1%
- cell viability ([2]; 1 nM): 93.8%
- cell viability ([2]; 10 nM): 106%
- cell viability ([2]; 100 nM): 89.1%
- cell viability ([2]; 1000 nM): 83.8%
- cell viability ([2]; 10000 nM): 51.2%
- cell viability ([3]; 1 nM): 104%
- cell viability ([3]; 10 nM): 102%
- cell viability ([3]; 100 nM): 93.3%
- cell viability ([3]; 1000 nM): 86.5%
- cell viability ([3]; 10000 nM): 38.5%
- cell viability ([4]; 1 nM): 102%
- cell viability ([4]; 10 nM): 106%
- cell viability ([4]; 100 nM): 95.2%
- cell viability ([4]; 1000 nM): 94.2%
- cell viability ([4]; 10000 nM): 62.1%
- cell viability ([5]; 1 nM): 99.2%
- cell viability ([5]; 10 nM): 104%
- cell viability ([5]; 100 nM): 95%
- cell viability ([5]; 1000 nM): 90.2%
- cell viability ([5]; 10000 nM): 70%
- relative viability EC50 [7]: 1.65 µM
- drug sensitivity score [9]: 4.7
- drug sensitivity score [10]: 4.2
- drug sensitivity score [11]: 5.5
- drug sensitivity score [12]: 2.8
- drug sensitivity score [13]: 2.2

Structure (SMILES): CC(C)Cc1ccc(C(C)C(=O)NO)cc1 (stereo unspecified) [ibuproxam]
- drug sensitivity score [10]: 0
- drug sensitivity score [11]: 0
- drug sensitivity score [12]: 0
- drug sensitivity score [13]: 0

Structure (SMILES): C[C@H]1O[C@H](O[C@H]2[C@H](O)[C@@H](O)[C@@H](O[C@H]3[C@H](O)[C@@H](O)C(O)O[C@@H]3CO)O[C@@H]2CO)[C@H](O)[C@@H](O)[C@@H]1N[C@H]1C=C(CO)[C@@H](O)[C@H](O)[C@H]1O (stereo partly specified) [acarbose]
- drug sensitivity score [10]: 0
- drug sensitivity score [11]: 0
- drug sensitivity score [13]: 0

Structure (SMILES): Cc1nc(=O)c2cc(CN(C)c3ccc(C(=O)N[C@@H](CCC(=O)O)C(=O)O)s3)ccc2[nH]1 [raltitrexed]
- cell viability ([1]; 1 nM): 91.2%
- cell viability ([1]; 10 nM): 99%
- cell viability ([1]; 100 nM): 64.2%
- cell viability ([1]; 1000 nM): 59.9%
- cell viability ([1]; 10000 nM): 50.1%
- cell viability ([2]; 1 nM): 103%
- cell viability ([2]; 10 nM): 104%
- cell viability ([2]; 100 nM): 87.4%
- cell viability ([2]; 1000 nM): 92.6%
- cell viability ([2]; 10000 nM): 85.8%
- cell viability ([3]; 1 nM): 111%
- cell viability ([3]; 10 nM): 104%
- cell viability ([3]; 100 nM): 70.7%
- cell viability ([3]; 1000 nM): 60.7%
- cell viability ([3]; 10000 nM): 65.1%
- cell viability ([4]; 1 nM): 99.1%
- cell viability ([4]; 10 nM): 105%
- cell viability ([4]; 100 nM): 100%
- cell viability ([4]; 1000 nM): 97.4%
- cell viability ([4]; 10000 nM): 95.8%
- cell viability ([5]; 1 nM): 98.8%
- cell viability ([5]; 10 nM): 101%
- cell viability ([5]; 100 nM): 66.1%
- cell viability ([5]; 1000 nM): 62.9%
- cell viability ([5]; 10000 nM): 66.6%
- relative viability EC50 [14]: > 10 µM
- relative viability EC50 [8]: > 10 µM
- drug sensitivity score [9]: 13.4
- drug sensitivity score [10]: 2
- drug sensitivity score [11]: 10.5
- drug sensitivity score [12]: 0
- drug sensitivity score [13]: 10.7

Structure (SMILES): CS(=O)(=O)c1ccc(-c2nnc(/C=C/c3nnc(-c4ccc(C#N)cc4)o3)n2-c2ccccc2Cl)nc1 [G007-LK]
- cell viability ([1]; 1 nM): 104%
- cell viability ([1]; 10 nM): 108%
- cell viability ([1]; 100 nM): 93.1%
- cell viability ([1]; 1000 nM): 83.1%
- cell viability ([1]; 10000 nM): 94.1%
- cell viability ([2]; 1 nM): 105%
- cell viability ([2]; 10 nM): 93.4%
- cell viability ([2]; 100 nM): 67.1%
- cell viability ([2]; 1000 nM): 66%
- cell viability ([2]; 10000 nM): 77.2%
- cell viability ([3]; 1 nM): 107%
- cell viability ([3]; 10 nM): 106%
- cell viability ([3]; 100 nM): 101%
- cell viability ([3]; 1000 nM): 92.8%
- cell viability ([3]; 10000 nM): 89.5%
- cell viability ([4]; 1 nM): 94.7%
- cell viability ([4]; 10 nM): 98%
- cell viability ([4]; 100 nM): 91.8%
- cell viability ([4]; 1000 nM): 85.8%
- cell viability ([4]; 10000 nM): 83.5%
- cell viability ([5]; 1 nM): 99.2%
- cell viability ([5]; 10 nM): 105%
- cell viability ([5]; 100 nM): 95.1%
- cell viability ([5]; 1000 nM): 61.7%
- cell viability ([5]; 10000 nM): 57.8%
- relative viability EC50 [6]: > 10 µM
- relative viability EC50 [7]: > 10 µM
- relative viability EC50 [8]: > 10 µM
- drug sensitivity score [9]: 2.6
- drug sensitivity score [10]: 11.1
- drug sensitivity score [11]: 0.1
- drug sensitivity score [12]: 1.4
- drug sensitivity score [13]: 7.5
